In data set [1] the test system is SARS-CoV-2 WK-521 (ancestral Wuhan strain). Type of data set: cell-based. The settings on record: Table 2; VeroE6 cells, RNA-qPCR. A general note: Quantitative PCR measures a nucleic acid by following its amplification.
Another data set is described as follows: in vitro. The settings on record: African green monkey, CC50, Table 1; VeroE6 cells, WST-8.
In data set [2] the test system is SARS-CoV-2 WK-521 infected VeroE6 cells. The settings on record: concentrations up to 100 μM (Figure S3).
The target in a further data set is SARS-CoV-2 M^pro/3CL^pro (Severe acute respiratory syndrome coronavirus 2, UniProt P0DTD1). In words: biochemical. The settings on record: for IC50 fold change to 5h (in parentheses): Table 1.
For data set [3] the following is noted: mice.
Another data set is described as follows: in vivo. The settings on record: female, Jcl:ICR (ICR), mouse, iv, 2 mg/kg, mice, i.v. 2.0 mg/kg, 240 min.

The structures appear in SMILES notation. Read-outs that look alike come from different tables or passages of the source.

What is called EC75 is the concentration needed for an effect of 75%. Read a high EC75 as weaker potency. A word on the EC99: it is the concentration at which the effect reaches the 99% level. Usually CC50 stands for the concentration that lowers cell viability or growth by half. Read a low CC50 as harm at low concentration. One may read the IC50 as the midpoint of a concentration-inhibition curve. A word on the half-life: it is the time needed for the level to fall by half in the phase considered. A lower half-life goes with fast loss.

On to `COc1ccc(F)c2[nH]c(C(=O)N[C@@H](CC(C)C)C(=O)N[C@@H](C[C@@H]3CCNC3=O)C(=O)c3nc4c(F)cccc4s3)cc12` [Compound 3], for which, in data set [1], the concentration for an effect of 75% (EC75) is 460 ± 20 nM and the EC99 worked out at 0.97 ± 0.0020 µM. This compound registered a CC50 in the data set “in vitro” of over 100000 nM. Moreover, in data set [2], the “cytotoxicity in immunostaining experiments” value is “no significant cytotoxicity at concentrations up to 100 μM”. In addition, at SARS-CoV-2 M^pro/3CL^pro, the IC50 was 37 ± 1 nM and the “IC50 fold change to 5h (in parentheses)” value is recorded as 0.10.

With `COc1ccc(F)c2[nH]c(C(=O)N[C@@H](CC(C)C)C(=S)N[C@@H](C[C@@H]3CCNC3=O)C(=O)c3nc4c(F)cccc4s3)cc12` [Compound 4], in data set [1], the EC75 came out at 590 ± 30 nM and the EC99 worked out at 4.1 ± 3.1 µM. In “in vitro”, this compound came in with a CC50 of over 100000 nM. Moreover, the “cytotoxicity in immunostaining experiments” value in data set [2] is “no significant cytotoxicity at concentrations up to 100 μM”. Besides, on SARS-CoV-2 M^pro/3CL^pro, the midpoint of inhibition, the IC50, lay at 370 ± 15 nM and the “IC50 fold change to 5h (in parentheses)” value was 1.0. The “blood concentrations after administration” value (shortened to “blood concentrations”) in data set [3] (i.p. 20 mg/kg) is “maintained remarkably higher blood concentrations than compound 3”. In addition, in data set [3] (i.v. 2.0 mg/kg), the “blood concentrations” value was “higher blood concentrations of compound 4 were maintained compared with those of compound 3 after 60 min, and even 240 min”. Further, the “blood concentrations” value in data set [3] (p.o.) was “maintained remarkably higher blood concentrations for the first day than compound 3”.

As for `CC(C)C[C@H](NC(=O)c1cc2c(F)ccc(F)c2[nH]1)C(=O)N[C@@H](C[C@@H]1CCNC1=O)C(=O)c1nc2cc(F)ccc2s1` [Compound 44], the half-life in “in vivo” is about 30 min. In addition, the CC50 in the data set “in vitro” was over 100000 nM. Moreover, at SARS-CoV-2 M^pro/3CL^pro, the IC50 came out at 120 ± 10 nM and the “IC50 fold change to 5h (in parentheses)” value amounted to 0.34.

Compound `CC(C)C[C@H](NC(=O)c1cc2c(F)cc(F)cc2[nH]1)C(=O)N[C@@H](C[C@@H]1CCNC1=O)C(=O)c1nc2cc(F)ccc2s1` [Compound 54] returned a CC50 in “in vitro” of over 100000 nM. At SARS-CoV-2 M^pro/3CL^pro, 540 ± 20 nM corresponded to half-maximal inhibition (IC50) and the “IC50 fold change to 5h (in parentheses)” value was 1.5.

Compound `COc1cccc2[nH]c(C(=O)N[C@@H](CC(C)C)C(=S)N[C@@H](C[C@@H]3CCNC3=O)C(=O)c3nc4ccccc4s3)cc12` [Compound 60] displayed a half-life in “in vivo” of 50 to 60 min. In the data set “in vitro”, this compound came in with a CC50 of over 100000 nM. Also, on SARS-CoV-2 M^pro/3CL^pro, 990 ± 60 nM corresponded to half-maximal inhibition (IC50) and the “IC50 fold change to 5h (in parentheses)” value was found to be 2.8. The “blood concentrations” value in data set [3] (i.v. 2.0 mg/kg) is “High blood concentrations of compound 60 were maintained after 60 min, and even 240 min had passed”. The “half-life, times longer than that of the parent compound” value in data set [3] (i.v. 2.0 mg/kg, relative to 5h (2)) is 2–3 times.

Take `CC(C)(C)[C@H](NC(=O)C(F)(F)F)C(=O)N1C[C@H]2[C@@H]([C@H]1C(=O)N[C@H](C#N)C[C@@H]1CCNC1=O)C2(C)C` [PF-07321332 (1), Nirmatrelvir, reference compound]: in data set [1], the concentration for an effect of 75% (EC75) amounted to 4400 ± 210 nM and the EC99 came out at 9.7 ± 0.015 µM. This compound displayed a half-life in the data set “in vivo” of under 23 min. For the same compound, the CC50 in the data set “in vitro” is over 100000 nM.

In the case of `CCC(CC)COC(=O)[C@H](C)N[P@](=O)(OC[C@H]1O[C@@](C#N)(c2ccc3c(N)ncnn23)[C@H](O)[C@@H]1O)Oc1ccccc1` [Remdesivir, reference compound], in the data set “in vitro”, the CC50 was over 100000 nM.

(Values after PMC9623849 (iScience, 2022).)
